From patent US12606554B2, “Compounds and pharmaceutical compositions thereof for the treatment of diseases” (ONCO3R Therapeutics BV, priority 2019, dated 2026)

What was measured:
SIK3 = molecular target: T1, SIK3 (Homo sapiens, UniProt Q9Y2K2); experiment: ADP-Glo kinase assay, SIK3; type: biochemical; conditions: AMARA peptide 45 μM, 5 μM ATP, 120 min
T1 construct: purchased SignalChem S12-11G-100
Text: (§1) The ADP-Glo™ kinase assay is a luminescent technology assay which measures the ADP formed from a kinase reaction. In this specific study, the kinase reactions consisted of the phosphorylation of the AMARA peptide substrate (SignalChem, Cat #A11-58) by SIK1 (Carma Biosciences, Cat #02-131), SIK2 (ThermoFisher Scientific, Cat #PV4792) or SIK3 (SignalChem, Cat #S12-11G-100). In a second step the kinase reactions are terminated and all the remaining ATP is depleted. In a final step the ADP is converted into ATP and this newly synthesized ATP is measured by using a luciferase/luciferin reaction. The generated light is measured using an Envision plate reader, wherein the luminescent signal obtained positively correlates with the kinase activity.
(§2) The test compounds are prepared as a serial dilution of 10 point dose responses with ⅕ dilution steps in 100% DMSO starting from 2 mM highest concentration, diluted 1/20 in water and […] is transferred to the assay plates (PerkinElmer Inc., Cat #6007290).
(§3) 1% DMSO and 10 μM staurosporine final concentrations are used as negative and positive controls.
(§4) 2 μL enzyme-substrate mixture is added to the assay plates.
(§5) The reaction is started by adding 2 μL diluted ATP on the assay plates. Plates are centrifuged for a few seconds at 1000 rpm and gently shaken for 2 min followed by an incubation at RT for 120 min.
(§6) The reactions are stopped and the unconsumed ATP is depleted by adding 5 μL ADP-Glo Reagent (Promega, Cat #V9121B) to the reaction. The plates are centrifuged for a few seconds at 1000 rpm and incubated at RT for […] (ATP depletion).
(§7) The ADP is converted to ATP and luciferase and luciferin is introduced to detect ATP by adding 10 μL Kinase Detection Reagent (Promega, Cat #V913B+V914r) to the reaction. The plates are centrifuged for a few seconds at 1000 rpm and incubated at RT for 30 min (ADP detection).
(§8) Luminescence is measured on an Envision plate reader (PerkinElmer Inc.).
(§9) Raw data are generated following the read-out performed on the TopCount, plotted to generate dose response curves to calculate percentage inhibition (PIN) and average IC50 for each SIK homologue which are reported in the table below.

SIK2 = molecular target: T2, SIK2 (Homo sapiens, UniProt Q9H0K1); experiment: ADP-Glo kinase assay, SIK2; type: biochemical; conditions: AMARA peptide 45 μM, 5 μM ATP, 120 min
T2 construct: purchased ThermoFisher Scientific PV4792
Text: as §1, §2, §3, §4, §5, §6, §7, §8, §9

[1] = tested on: LPS-induced TNFα in monocyte-derived macrophages (MdM); experiment: MdM assay: LPS-triggered TNFα (ELISA); type: cell-based; conditions: Homo sapiens, Macrophage, LPS 200 ng/mL, supernatant after 20 h
Description: SIK inhibition inhibits TNFα and increases IL-10 release in LPS triggered monocyte-derived macrophages (MdM) and dendritic cells (MdDCs) (Clark et al. 2012; Sundberg et al. 2014; Ozanne et al. 2015). This assay evaluates illustrative compounds of the invention for their inhibition of LPS-induced TNFα and LPS triggered IL-10 secretion in monocyte-derived macrophages.
PBMCs are isolated from human blood samples (buffycoats). The buffy coat is aseptically transferred into a 50 mL Falcon tube, and diluted ½ in PBS. Falcon tubes are filled with 20 mL Lymphoprep™, on top of which 25 mL of the buffy coat is carefully added, tubes are centrifuged for 35 min at 400 g in temperature controlled centrifuge, without brake, at 25° C. PBMCs are aspirated from the white interface layer between sample and Lymphoprep™. PBMCs are washed five times in PBS. Cells are resuspended in RPMI 1640 complete medium supplemented with 10% FBS, 1% P/S, and cell density is determined using a hematologic analyzer (Sysmex XS-500i).
PBMCs are centrifuged at 300×g for 10 min and resuspended at a density of 1.0*10^7 cells/80 μL Miltenyi buffer (PBS, pH 7.4, 1% FBS, 2 mM EDTA).
Starting from this point of the protocol all steps are performed on ice. 20 μL of CD14+ micro-beads are added per 1.0*10^7 cells, the tube is mixed and incubated for 15 min in the fridge at 4° C. Cell suspension volume is adjusted to total volume of 100 mL using Miltenyi buffer, mixed gently and subsequently centrifuged for 10 min at 300×g. Supernatant is discarded and cell pellet is resuspended in 12 mL of Miltenyi buffer.
Four LS columns are placed in the MACS Separator (magnet) from Miltenyi Biotec, and are prewet by rinsing with 3 mL of MACS buffer per column. […]
The columns are removed from the magnets, and 5 mL of Miltenyi buffer are added to the column to flush out the CD14+ fraction by pushing the plunger into the column. […] The obtained cell pellet is resuspended in 10 mL RPMI w/o FBS, and cell density is determined using a hematologic analyser (Sysmex XS-500i). […]

SIK1 = molecular target: T3, SIK1 (Homo sapiens, UniProt P57059); experiment: ADP-Glo kinase assay, SIK1; type: biochemical; conditions: AMARA peptide 45 μM, 5 μM ATP, 120 min, read-out: SIM1 IC50
T3 construct: purchased Carna Biosciences 02-131
Text: as §1, §2, §3, §4, §5, §6, §7, §8, §9

T2 sequence (Q9H0K1 whole entry): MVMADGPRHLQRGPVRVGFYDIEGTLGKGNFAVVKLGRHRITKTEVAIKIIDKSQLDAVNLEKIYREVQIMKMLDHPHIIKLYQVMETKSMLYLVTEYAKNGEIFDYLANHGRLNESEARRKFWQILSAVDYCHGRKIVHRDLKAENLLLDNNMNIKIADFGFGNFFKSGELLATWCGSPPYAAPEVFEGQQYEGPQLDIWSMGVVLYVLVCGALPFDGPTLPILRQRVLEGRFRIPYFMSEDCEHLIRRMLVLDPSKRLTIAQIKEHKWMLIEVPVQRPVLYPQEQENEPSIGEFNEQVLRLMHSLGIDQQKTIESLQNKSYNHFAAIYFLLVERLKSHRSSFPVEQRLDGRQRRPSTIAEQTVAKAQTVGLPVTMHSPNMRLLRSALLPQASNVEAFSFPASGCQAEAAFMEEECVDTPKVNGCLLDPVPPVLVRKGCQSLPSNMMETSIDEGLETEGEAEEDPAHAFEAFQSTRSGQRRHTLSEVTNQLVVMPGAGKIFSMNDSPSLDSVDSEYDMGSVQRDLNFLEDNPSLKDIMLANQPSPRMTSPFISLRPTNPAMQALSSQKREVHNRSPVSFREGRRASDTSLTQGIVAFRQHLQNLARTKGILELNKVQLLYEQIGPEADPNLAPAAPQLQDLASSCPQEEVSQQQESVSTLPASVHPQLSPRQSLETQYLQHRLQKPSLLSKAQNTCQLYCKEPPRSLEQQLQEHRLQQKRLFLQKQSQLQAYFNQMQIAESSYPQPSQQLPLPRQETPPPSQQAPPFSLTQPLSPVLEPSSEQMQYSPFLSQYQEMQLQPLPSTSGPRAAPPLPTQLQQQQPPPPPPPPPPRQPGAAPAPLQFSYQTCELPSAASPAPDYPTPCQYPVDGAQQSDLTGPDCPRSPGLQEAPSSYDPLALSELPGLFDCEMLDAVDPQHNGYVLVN
T3 sequence (P57059 whole entry): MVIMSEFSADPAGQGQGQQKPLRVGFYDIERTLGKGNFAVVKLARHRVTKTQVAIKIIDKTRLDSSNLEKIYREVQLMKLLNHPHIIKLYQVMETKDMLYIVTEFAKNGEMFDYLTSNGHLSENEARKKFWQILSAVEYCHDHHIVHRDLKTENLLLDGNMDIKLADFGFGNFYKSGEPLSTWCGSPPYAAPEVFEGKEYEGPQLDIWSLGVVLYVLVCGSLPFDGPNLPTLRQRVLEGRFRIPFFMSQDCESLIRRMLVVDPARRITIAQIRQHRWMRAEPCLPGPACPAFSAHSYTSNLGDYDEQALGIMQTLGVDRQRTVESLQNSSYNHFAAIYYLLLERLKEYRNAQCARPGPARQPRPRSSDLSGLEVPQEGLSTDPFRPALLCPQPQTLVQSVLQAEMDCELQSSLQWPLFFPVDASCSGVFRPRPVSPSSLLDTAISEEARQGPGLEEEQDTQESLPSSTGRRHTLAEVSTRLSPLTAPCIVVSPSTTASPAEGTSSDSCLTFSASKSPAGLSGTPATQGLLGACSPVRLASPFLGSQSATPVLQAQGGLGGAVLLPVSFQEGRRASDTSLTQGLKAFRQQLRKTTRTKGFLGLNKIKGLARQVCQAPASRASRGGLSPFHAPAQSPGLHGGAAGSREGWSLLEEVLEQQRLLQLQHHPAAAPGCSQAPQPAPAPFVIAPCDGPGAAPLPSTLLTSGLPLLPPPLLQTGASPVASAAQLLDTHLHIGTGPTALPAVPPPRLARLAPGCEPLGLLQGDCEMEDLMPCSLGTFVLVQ
T1 sequence (Q9Y2K2 whole entry): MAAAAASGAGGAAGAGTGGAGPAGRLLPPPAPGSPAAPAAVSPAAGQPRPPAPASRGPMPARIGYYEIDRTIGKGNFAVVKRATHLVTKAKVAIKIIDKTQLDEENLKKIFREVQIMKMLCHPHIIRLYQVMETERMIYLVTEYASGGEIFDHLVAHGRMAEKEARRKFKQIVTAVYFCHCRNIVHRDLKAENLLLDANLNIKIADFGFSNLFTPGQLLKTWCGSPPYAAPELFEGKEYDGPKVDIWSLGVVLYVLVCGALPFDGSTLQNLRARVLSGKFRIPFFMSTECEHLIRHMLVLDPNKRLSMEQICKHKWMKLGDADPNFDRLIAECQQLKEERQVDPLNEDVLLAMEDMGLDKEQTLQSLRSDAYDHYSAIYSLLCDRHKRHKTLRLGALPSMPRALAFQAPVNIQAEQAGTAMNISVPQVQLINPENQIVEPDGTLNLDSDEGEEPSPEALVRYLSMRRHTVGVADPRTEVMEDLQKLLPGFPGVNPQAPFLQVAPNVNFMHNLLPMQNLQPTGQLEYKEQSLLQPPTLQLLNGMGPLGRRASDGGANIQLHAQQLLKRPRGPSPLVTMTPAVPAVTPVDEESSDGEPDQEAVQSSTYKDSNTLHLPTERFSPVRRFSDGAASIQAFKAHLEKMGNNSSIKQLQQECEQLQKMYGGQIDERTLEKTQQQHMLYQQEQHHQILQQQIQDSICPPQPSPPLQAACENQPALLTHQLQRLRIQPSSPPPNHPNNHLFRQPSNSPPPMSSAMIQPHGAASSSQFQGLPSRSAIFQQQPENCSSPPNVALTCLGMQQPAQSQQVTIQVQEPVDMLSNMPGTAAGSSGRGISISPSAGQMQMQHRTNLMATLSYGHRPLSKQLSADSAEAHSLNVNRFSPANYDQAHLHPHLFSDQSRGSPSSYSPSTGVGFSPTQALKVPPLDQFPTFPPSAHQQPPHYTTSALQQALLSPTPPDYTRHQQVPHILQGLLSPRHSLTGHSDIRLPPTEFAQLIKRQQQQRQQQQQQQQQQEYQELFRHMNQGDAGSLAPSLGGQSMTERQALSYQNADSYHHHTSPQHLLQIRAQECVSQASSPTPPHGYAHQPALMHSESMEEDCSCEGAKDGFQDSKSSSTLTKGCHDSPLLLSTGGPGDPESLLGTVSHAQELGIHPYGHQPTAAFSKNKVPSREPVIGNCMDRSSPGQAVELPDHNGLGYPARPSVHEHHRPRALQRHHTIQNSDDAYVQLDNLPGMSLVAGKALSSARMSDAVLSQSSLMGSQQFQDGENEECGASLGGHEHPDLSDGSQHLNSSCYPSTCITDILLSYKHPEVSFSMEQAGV

In the case of `COc1cc(-c2cnn3cc(OCCN4CCOCC4)ccc23)cc2c1C(=O)N(CC(F)(F)F)CC2` [Cpd 1, 8-methoxy-6-[6-(2-morpholinoethoxy)pyrazolo[1,5-a]pyridin-3-yl]-2-(2,2,2-trifluoroethyl)-3,4-dihydroisoquinolin-1-one], the IC50 (SIK3) is reported as 0.01 to 10 nM, the IC50 (SIK2) is reported as 0.01 to 10 nM and the EC50 [1] is reported as 100 to 1000 nM. The IC50 (SIK1) was 100 to 500 nM.
Compound `COc1cc(-c2cnn3cc(OC(C)(C)CO)ccc23)cc(OC(F)F)c1C(=O)N[C@@H]1C[C@@H]1F` [Cpd 2, 2-(difluoromethoxy)-N-[(1R,2S)-2-fluorocyclopropyl]-4-[6-(2-hydroxy-1,1-dimethyl-ethoxy)pyrazolo[1,5-a]pyridin-3-yl]-6-methoxy-benzamide] has an IC50 (SIK3) of 0.01 to 10 nM, an IC50 (SIK2) of 100 to 500 nM and an EC50 [1] of 100 to 1000 nM. For the same compound, the IC50 (SIK1) was greater than 500 nM.
With `COc1cc(-c2cnn3cc(OC(C)(C)CN4CCOCC4)ccc23)cc(OC(F)F)c1C(=O)N[C@@H]1C[C@@H]1F` [Cpd 3, 2-(difluoromethoxy)-4-[6-(1,1-dimethyl-2-morpholino-ethoxy)pyrazolo[1,5-a]pyridin-3-yl]-N-[(1R,2S)-2-fluorocyclopropyl]-6-methoxy-benzamide] the IC50 (SIK3) was 10 to 100 nM, the IC50 (SIK2) was 100 to 500 nM and the EC50 [1] was 100 to 1000 nM. It also gave an IC50 (SIK1) greater than 500 nM.
